Each compound was assayed against T1, cereblon (CRBN)—DNA damage protein 1 (DDB1) complex (Homo sapiens, UniProt Q96SW2) (assay: Cereblon HTRF binding assay).
T1 construct: encoding amino acid residues 1 to 442 (Uniprot Q96SW2); hexahistidine (N); thrombin cleavage site (N); made in house; host or cells: Sf9 insect cells (baculovirus co-infection)
Description: The synthesized sequence was designed to encode an N-terminal hexahistidine tag, a thrombin cleavage site, an AviTag™ and a tobacco etch virus protease (TEV) cleavage site followed by the CBRN sequence. The resulting protein sequence is listed below.
The synthesized sequence was designed to encode an N-terminal hexahistidine tag, a tobacco etch virus protease (TEV) cleavage site followed by the DDB1 sequence. […] The linker amino acid residues are underlined and shown in italics.
Baculovirus production of CBRN and DDB1: Recombinant bacmid and P2 virus of CBRN and DDB1 was generated according to the Bac-to-Bac Baculovirus Expression System manual (ThermoFisher Scientific).
Protein Purification: Protein purification was initiated by thawing cells (resuspended in Lysis buffer) at r.t. Once thawed, NaCl was added to a final concentration of 200 mM, followed by 0.01 μL/mL Benzonase™ and the lysate was incubated with slow stirring for 20 minutes. After the freeze-thaw lysis, the whole cell lysate was centrifuged at 48 000 g for 45 minutes and all following purification steps were done on ice or in cold-room. Supernatant (cell lysate) was mixed with 1 mL/50 mL lysate Ni Sepharose™ 6 Fast Flow (Cytiva) pre-equilibrated with Wash buffer (50 mM Tris-Cl pH 8, 20 mM Imidazole, 500 mM NaCl, 10% Glycerol, 1 mM TCEP) and incubated with slow stirring for 1 h. The mix was loaded in a 70 mL open gravity flow column, washed with 10 bed volumes of Wash buffer, and stepwise eluted with 300 mM imidazole in Wash buffer. […] After biotinylation, the CBRN/DDB1 complex was purified by Size Exclusion Chromatography on a HiLoad™ 26/60 Superdex™ 200 column equilibrated in SEC buffer (50 mM HEPES pH 7.5, 200 mM NaCl, 5% glycerol, 1 mM TCEP) before flash-freezing in liquid nitrogen and storage at −80° C.
The assay mixture in a total volume of 4 μL consists of 50 mM Tris-HCl at pH 7.5, 100 mM NaCl, 0.01% Pluronic F127, 1 mM TCEP, 500 μM EDTA, 0.2 nM CRBN-DDB1, 0.2 nM terbium cryptate labeled streptavidin, and 2 nM Cyanine 5-labeled lenalidomide as the probe. […] Reagents were dispensed into the 384-well assay microplate using a Certus Flex liquid dispenser. After incubation for 2 h at r.t., the assay plates were read on a PHERAstar FSX plate reader (BMG Labtech) in the HTRF mode. The raw data from PHERAstar was directly imported into Genedata Screener for analysis. […] The ratio was normalized to positive and negative controls on the same plates to calculate percent inhibition: I %=(I−NC)/(PC−NC), where I are readings from the compound treated well, NC and PC are average readings from negative control wells and positive control wells, respectively. IC50 values were obtained by fitting the I % vs. compound concentration [I] to I %=S0+(SInf−S0)/(1+((IC50/[I])^n)), where S0 is the fitted activity level at zero concentration of test compound, SInf is the fitted activity level at […] concentration of test compound, and n is the hill coefficient of the curve.
The IC50 values reported below are the calculated mean result of one or more experiments.

T1 sequence (Q96SW2 with tags, fused parts or gaps): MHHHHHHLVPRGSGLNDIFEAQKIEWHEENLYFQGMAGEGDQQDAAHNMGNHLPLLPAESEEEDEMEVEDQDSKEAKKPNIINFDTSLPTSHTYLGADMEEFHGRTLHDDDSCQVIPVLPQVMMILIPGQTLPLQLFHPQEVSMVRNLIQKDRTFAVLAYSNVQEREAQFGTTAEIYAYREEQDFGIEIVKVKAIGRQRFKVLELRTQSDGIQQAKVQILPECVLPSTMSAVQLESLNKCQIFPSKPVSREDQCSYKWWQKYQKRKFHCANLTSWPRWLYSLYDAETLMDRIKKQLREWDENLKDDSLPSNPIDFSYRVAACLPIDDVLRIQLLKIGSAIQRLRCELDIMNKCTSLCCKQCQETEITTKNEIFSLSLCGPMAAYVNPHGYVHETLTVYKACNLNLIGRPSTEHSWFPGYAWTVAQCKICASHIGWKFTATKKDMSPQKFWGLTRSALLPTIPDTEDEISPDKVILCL

Compound	IC50
O=C1CCN(c2ccc3c(c2)CNC3)C(=O)N1 [Example 24, 1-(Isoindolin-5-yl)dihydropyrimidine-2,4 (1H,3H)-dione]	8980 nM
CN1Cc2ccc(N3CCC(=O)NC3=O)cc2C1 [Example 25, 1-(2-Methylisoindolin-5-yl)dihydropyrimidine-2,4 (1H,3H)-dione]	2960 nM
O=C1CCN(c2ccc3c(c2)CCCN3)C(=O)N1 [Example 26, 1-(1,2,3,4-Tetrahydroquinolin-6-yl)dihydropyrimidine-2,4 (1H,3H)-dione]	1490 nM
CN1CCCc2cc(N3CCC(=O)NC3=O)ccc21 [Example 27, 1-(1-Methyl-1,2,3,4-tetrahydroquinolin-6-yl)dihydropyrimidine-2,4 (1H,3H)-dione]	1040 nM
O=C1CCN(c2ccc3c(c2)CNCC3)C(=O)N1 [Example 28, 1-(1,2,3,4-Tetrahydroisoquinolin-7-yl)dihydropyrimidine-2,4 (1H,3H)-dione]	17000 nM
CN1CCc2ccc(N3CCC(=O)NC3=O)cc2C1 [Example 29, 1-(2-Methyl-1,2,3,4-tetrahydroisoquinolin-7-yl)dihydropyrimidine-2,4 (1H,3H)-dione]	8010 nM
O=C1CCN(c2ccc3c(c2)CCNC3)C(=O)N1 [Example 30, 1-(1,2,3,4-Tetrahydroisoquinolin-6-yl)dihydropyrimidine-2,4 (1H,3H)-dione]	8680 nM
CN1CCc2cc(N3CCC(=O)NC3=O)ccc2C1 [Example 31, 1-(2-Methyl-1,2,3,4-tetrahydroisoquinolin-6-yl)dihydropyrimidine-2,4 (1H,3H)-dione]	4100 nM
O=C1CCN(c2ccc3c(c2)NCCC3)C(=O)N1 [Example 32, 1-(1,2,3,4-Tetrahydroquinolin-7-yl)dihydropyrimidine-2,4 (1H,3H)-dione]	1230 nM
O=C1CCN(c2cccc3[nH]ncc23)C(=O)N1 [Example 34, 1-(1H-Indazol-4-yl)dihydropyrimidine-2,4 (1H,3H)-dione]	627 nM
O=C1CCN(c2ccc3[nH]ncc3c2)C(=O)N1 [Example 35, 1-(1H-Indazol-5-yl)dihydropyrimidine-2,4 (1H,3H)-dione]	2970 nM
O=C1CCN(c2cnc3cnoc3c2)C(=O)N1 [Example 36, 1-(Isoxazolo[4,5-b]pyridin-6-yl)dihydropyrimidine-2,4 (1H,3H)-dione]	115 nM
O=C1CCN(c2cnc3ccoc3c2)C(=O)N1 [Example 37, 1-(Furo[3,2-b]pyridin-6-yl)dihydropyrimidine-2,4 (1H,3H)-dione]	3100 nM
O=C1CCN(c2ccc3nn[nH]c3c2)C(=O)N1 [Example 38, 1-(1H-Benzo[d][1,2,3]triazol-6-yl)dihydropyrimidine-2,4 (1H,3H)-dione]	566 nM
O=C1CCN(c2ccc3nc[nH]c3c2)C(=O)N1 [Example 41, 1-(1H-Benzo[d]imidazol-6-yl)dihydropyrimidine-2,4 (1H,311)-dione]	1170 nM
O=C1CCN(c2ccc3cn[nH]c3c2)C(=O)N1 [Example 42, 1-(1H-Indazol-6-yl)dihydropyrimidine-2,4 (1H,3H)-dione]	2110 nM
O=C1CCN(c2cccc3c2CNC3=O)C(=O)N1 [Example 43, 1-(1-Oxoisoindolin-4-yl)dihydropyrimidine-2,4 (1H,3H)-dione]	3630 nM
O=C1CCN(c2ccc3c(c2)C(=O)NC3)C(=O)N1 [Example 44, 1-(3-Oxoisoindolin-5-yl)dihydropyrimidine-2,4 (1H,3H)-dione]	8470 nM
O=C1NC(=O)N(c2ccc3cc[nH]c3c2)CC1F (stereo not drawn) [Example 45, 5-Fluoro-1-(1H-indol-6-yl)dihydropyrimidine-2,4 (1H,3H)-dione]	967 nM
O=C1CCN(c2ccc3[nH]c(=O)oc3c2)C(=O)N1 [Example 46, 1-(2-Oxo-2,3-dihydrobenzo[d]oxazol-6-yl)dihydropyrimidine-2,4 (1H,3H)-dione]	3750 nM
O=C1CCN(c2ccc3oc(=O)[nH]c3c2)C(=O)N1 [Example 47, 1-(2-Oxo-2,3-dihydrobenzo[d]oxazol-5-yl)dihydropyrimidine-2,4 (1H,3H)-dione]	3060 nM

— patent US20230374007A1, “COMPOUNDS AND THEIR USE IN TREATING CANCER” (AstraZeneca AB, priority 2020, published 2023)
